Assay results from ChEMBL document CHEMBL3792305, “Computational Tools To Model Halogen Bonds in Medicinal Chemistry” (J Med Chem, 2016).
Each block holds one molecule with its values, some of them ahead of it.

Columns and labels:
[1] = target: Casein kinase II (Homo sapiens, UniProt P19784+P67870+P68400); assay: Inhibition of CK2 (unknown origin); assay type: protein-complex assay
[2] = target: T1, Casein kinase II subunit alpha (Homo sapiens, UniProt P68400); assay: Inhibition of human wild type CK2alpha
T1 sequence (P68400 whole entry): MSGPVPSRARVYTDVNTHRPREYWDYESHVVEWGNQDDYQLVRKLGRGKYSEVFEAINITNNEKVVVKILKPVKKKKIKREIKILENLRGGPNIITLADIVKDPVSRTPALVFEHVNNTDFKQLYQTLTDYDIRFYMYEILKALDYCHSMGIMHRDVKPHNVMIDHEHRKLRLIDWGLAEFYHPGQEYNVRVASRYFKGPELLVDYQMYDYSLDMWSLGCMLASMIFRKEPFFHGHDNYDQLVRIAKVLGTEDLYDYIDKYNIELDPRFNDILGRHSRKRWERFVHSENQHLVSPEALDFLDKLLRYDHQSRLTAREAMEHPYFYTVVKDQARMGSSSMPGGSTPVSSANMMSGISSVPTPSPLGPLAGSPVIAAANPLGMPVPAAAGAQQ

[3] = target: T1, Casein kinase II subunit alpha; assay: Competitive inhibition of human wild type CK2alpha by Dixon plot analysis
[4] = target: Human immunodeficiency virus type 1 reverse transcriptase (Human immunodeficiency virus 1) (UniProt Q72547); assay: Binding affinity to HIV1 reverse transcriptase relative to control
[5] = target: T1, Casein kinase II subunit alpha; assay: Inhibition of CK2alpha (unknown origin)
[6] = target: Cellular tumor antigen p53 (Homo sapiens, UniProt P04637, Y220C); assay: Stabilization of human p53 Y220C mutant by differential scanning calorimetry
[7] = target: T2, Adenosine kinase (Toxoplasma gondii) (UniProt Q9TVW2); assay: Binding affinity to Toxoplasma gondii adenosine kinase assessed as formation of [14C]AMP from [14C]adenosine and ATP after 10 mins by liquid scintillation counting method relative to control
T2 sequence (whole entry): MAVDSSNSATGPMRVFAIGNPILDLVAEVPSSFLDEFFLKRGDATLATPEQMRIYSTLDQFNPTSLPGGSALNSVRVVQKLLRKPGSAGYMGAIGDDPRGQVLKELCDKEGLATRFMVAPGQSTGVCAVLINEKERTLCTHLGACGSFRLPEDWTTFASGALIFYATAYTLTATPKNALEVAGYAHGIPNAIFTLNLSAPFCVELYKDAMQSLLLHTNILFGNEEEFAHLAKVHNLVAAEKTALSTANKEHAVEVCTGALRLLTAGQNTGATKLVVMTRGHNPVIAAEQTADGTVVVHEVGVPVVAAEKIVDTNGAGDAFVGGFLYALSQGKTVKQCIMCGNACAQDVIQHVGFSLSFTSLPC

Chain of Casein kinase II (P67870 whole entry): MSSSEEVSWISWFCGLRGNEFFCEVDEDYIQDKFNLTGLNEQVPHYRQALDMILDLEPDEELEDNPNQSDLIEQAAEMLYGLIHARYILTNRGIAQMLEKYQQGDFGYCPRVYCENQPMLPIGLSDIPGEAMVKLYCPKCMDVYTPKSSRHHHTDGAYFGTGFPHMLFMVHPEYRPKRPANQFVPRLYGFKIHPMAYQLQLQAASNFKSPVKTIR
Chain of Casein kinase II (P68400 whole entry): as the sequence (P68400 whole entry) above
Chain of Casein kinase II (P19784 whole entry): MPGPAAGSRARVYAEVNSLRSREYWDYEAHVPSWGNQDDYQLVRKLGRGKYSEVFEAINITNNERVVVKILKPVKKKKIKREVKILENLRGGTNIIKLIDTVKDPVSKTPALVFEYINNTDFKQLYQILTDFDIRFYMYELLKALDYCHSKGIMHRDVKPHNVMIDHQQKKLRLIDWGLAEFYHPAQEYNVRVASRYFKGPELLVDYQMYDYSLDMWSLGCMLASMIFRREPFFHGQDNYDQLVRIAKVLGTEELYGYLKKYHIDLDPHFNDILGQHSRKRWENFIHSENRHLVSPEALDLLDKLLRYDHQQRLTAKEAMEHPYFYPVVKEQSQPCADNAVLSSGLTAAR

Ki [3]: 200 nM
SMILES: Cc1nc2c(I)c(Cl)c(Cl)c(I)c2[nH]1

Ki [3]: 300 nM
SMILES: Clc1c(Cl)c(I)c2[nH]cnc2c1I

Ki [1]: 370 nM
SMILES: FC(F)(F)c1nc2c(I)c(I)c(I)c(I)c2[nH]1

The next lines start with the molecule.

SMILES: S=C1NC2C(I)=C(I)C(I)=C(I)C2N1 (stereo not given)
Ki [1]: 200 nM

SMILES: S=c1[nH]c2c(Br)c(Br)c(Br)c(Br)c2[nH]1
Ki [2]: 70 nM

SMILES: CS(=O)(=O)c1nc2c(Br)c(Br)c(Br)c(Br)c2[nH]1
Ki [3]: 150 nM

SMILES: O=c1[nH]ccc(Oc2ccccc2)c1I
fold change (FC) [4]: 300

SMILES: FC(F)(F)c1nc2c(Br)c(Br)c(Br)c(Br)c2[nH]1
Ki [5]: 400 nM

SMILES: CCn1c2ccccc2c2cc(CNC)ccc21
Kd [6]: 150000 nM

SMILES: Nc1ncnc2c1c(I)cn2[C@@H]1O[C@H](CO)[C@@H](O)[C@H]1O
fold change (FC) [7]: 200
